For eight compounds, GI50 and TGI results are on record in PubChem BioAssay (NCI).

Some test systems named below: HCT-15 colon; A498 renal; TK-10 renal; RXF 393 renal; HS 578T breast; RPMI-8226 leukemia; MOLT-4 leukemia; PC-3 prostate; MDA-MB-435; UACC-257 melanoma.
Holding throughout (assay): inhibition of tumour cell growth, NCI panel, 48 h

Molecules are shown by their SMILES.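 Following 48 hours of exposure in 96-well plates, responses at five concentrations were used to interpolate endpoints linearly. Here, GI50 denotes the concentration required for 50% inhibition of growth. TGI: concentration producing complete growth inhibition.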

`C(=N\Nc1ccc2ccccc2n1)/c1ccccn1`: the GI50 is 0.377 µM with HCT-15 colon; 0.561 µM with A498 renal; 0.375 µM in the test with TK-10 renal; 0.443 µM in the test on RXF 393 renal; 2.36 µM in the test on HS 578T breast; 0.513 µM in the test with RPMI-8226 leukemia. The GI50 in the test with MOLT-4 leukemia was 0.353 µM; with PC-3 prostate it was 0.825 µM; in the test on MDA-MB-435, 1.01 µM. Moreover, the TGI in the test with HCT-15 colon is over 100 µM; with A498 renal, 15.4 µM; in the test on TK-10 renal it was over 100 µM; in the test with RXF 393 renal, over 52 µM; in the test with HS 578T breast it was over 52.9 µM; with RPMI-8226 leukemia, 15.7 µM. Besides, the TGI with MOLT-4 leukemia is over 21.8 µM; with PC-3 prostate it was 73 µM; in the test with MDA-MB-435, over 52.7 µM.

For `CC(=O)c1c(C)c2cnc(Nc3ccc(N4CCNCC4)cn3)nc2n(C2CCCC2)c1=O`, the GI50 with UACC-257 melanoma is 5.51 µM; in the test with HCT-15 colon it was 4.41 µM; in the test on A498 renal it was 4.69 µM; with TK-10 renal, 0.533 µM; with RXF 393 renal it was 2.87 µM; in the test with HS 578T breast, 14.9 µM. In addition, the GI50 in the test on RPMI-8226 leukemia was 0.268 µM; in the test on MOLT-4 leukemia, 0.548 µM; with PC-3 prostate it was 1.74 µM; in the test on MDA-MB-435, 6.5 µM. Besides, the TGI in the test with UACC-257 melanoma came out at 20.9 µM; with HCT-15 colon it was 20 µM; with A498 renal, 19.5 µM; in the test with TK-10 renal, 16.3 µM; in the test on RXF 393 renal, 17.2 µM; in the test with HS 578T breast it was 42.2 µM. For the same compound, the TGI with RPMI-8226 leukemia came to 32.1 µM; in the test on MOLT-4 leukemia, 24.9 µM; with PC-3 prostate it was 20.8 µM; in the test with MDA-MB-435 it was 22 µM.

Regarding `COc1ccc2c(c1)/C(=N/OC(C)=O)c1c-2c(OC)nc2ccccc12`, the GI50 in the test on UACC-257 melanoma is over 100 µM; with HCT-15 colon, over 100 µM; with A498 renal it was over 100 µM; in the test with TK-10 renal, 79.1 µM; in the test on RXF 393 renal, 77.7 µM; in the test with HS 578T breast it was 48.1 µM. Besides, the GI50 in the test on RPMI-8226 leukemia, with MOLT-4 leukemia, with PC-3 prostate and in the test on MDA-MB-435 was over 100 µM throughout. In addition, the TGI with UACC-257 melanoma, with HCT-15 colon, with A498 renal, in the test on TK-10 renal, in the test with RXF 393 renal and in the test on HS 578T breast was over 100 µM each time. Moreover, the TGI in the test with RPMI-8226 leukemia, in the test on MOLT-4 leukemia, in the test on PC-3 prostate and in the test with MDA-MB-435 was over 100 µM throughout.

As for `COc1ccc(C(O)c2ccccn2)cc1` (centres undefined), the TGI in the test with UACC-257 melanoma, in the test with HCT-15 colon, with A498 renal, in the test with TK-10 renal, in the test with RXF 393 renal and with HS 578T breast was over 100 µM throughout. For the same compound, the TGI in the test with RPMI-8226 leukemia, in the test on MOLT-4 leukemia, in the test on PC-3 prostate and with MDA-MB-435 was over 100 µM in each case.

For the compound `COc1cnccc1Nc1nc(-c2nn(Cc3c(F)cc(OCCO)cc3F)c3ccccc23)ncc1OC`, the GI50 in the test on UACC-257 melanoma was 4.38 µM; in the test with HCT-15 colon, 2.63 µM; with A498 renal it was 12.7 µM; in the test on TK-10 renal it was 14.5 µM; in the test with RXF 393 renal, 3.85 µM; with HS 578T breast, 9.08 µM. The GI50 is 2.19 µM in the test with RPMI-8226 leukemia, 1.55 µM in the test on MOLT-4 leukemia, 2.55 µM in the test on PC-3 prostate and 1.73 µM in the test on MDA-MB-435. The TGI in the test on UACC-257 melanoma was 17 µM; in the test with HCT-15 colon, over 100 µM; in the test with A498 renal it was 50.2 µM; in the test with TK-10 renal it was 27.7 µM; with RXF 393 renal, 17.1 µM; with HS 578T breast it was 26.3 µM. The TGI with RPMI-8226 leukemia was 55.2 µM; in the test with MOLT-4 leukemia it was over 100 µM; in the test on PC-3 prostate, over 100 µM; in the test with MDA-MB-435, 6.18 µM.

For the compound `FC(F)(F)c1cccc(-c2[nH]ncc2-c2nnnn2-c2ccccc2)c1`, the GI50 was 11.4 µM in the test with UACC-257 melanoma; 3.71 µM in the test on HCT-15 colon; 4.28 µM with A498 renal; 6.6 µM in the test with TK-10 renal; 2.91 µM in the test with RXF 393 renal; 4.85 µM with HS 578T breast. In addition, the GI50 in the test on RPMI-8226 leukemia was 3.12 µM; in the test on MOLT-4 leukemia, 4.79 µM; with PC-3 prostate it was 6.3 µM; with MDA-MB-435, 1.86 µM. The TGI stood at 33.9 µM in the test on UACC-257 melanoma; 16.3 µM in the test with HCT-15 colon; 17.8 µM in the test on A498 renal; 20 µM with TK-10 renal; 11.7 µM in the test with RXF 393 renal; 28.4 µM in the test on HS 578T breast. In addition, the TGI stood at 13.3 µM in the test with RPMI-8226 leukemia, 28.8 µM with MOLT-4 leukemia, 51.2 µM in the test on PC-3 prostate and 5.89 µM with MDA-MB-435.

As to `O=C1C(Cl)=C(NCCCN(CCCNC2=C(Cl)C(=O)c3ccccc3C2=O)C2=C(Cl)C(=O)c3ccccc3C2=O)C(=O)c2ccccc21`, the GI50 with HCT-15 colon is 1.66 µM; in the test with A498 renal it was 19.6 µM; in the test on TK-10 renal it was 17.9 µM; with RXF 393 renal, 10.7 µM; in the test with HS 578T breast, 2.88 µM; in the test with RPMI-8226 leukemia, 3.8 µM. Moreover, the GI50 is 2.15 µM in the test with PC-3 prostate and 1.74 µM in the test on MDA-MB-435. For the same compound, the TGI was 3.78 µM in the test with HCT-15 colon; 39.4 µM in the test with A498 renal; 36.9 µM in the test on TK-10 renal; 22.5 µM with RXF 393 renal; over 100 µM in the test with HS 578T breast; over 100 µM with RPMI-8226 leukemia. Also, the TGI with PC-3 prostate was 16.7 µM; with MDA-MB-435 it was 3.26 µM.

As to `Oc1[nH]c2ccccc2c1C=Nc1ccc(-n2cncn2)cc1`, the GI50 in the test on UACC-257 melanoma was over 25 µM; with HCT-15 colon, 18.8 µM; with A498 renal, over 16.7 µM; in the test with TK-10 renal it was over 17.1 µM; with RXF 393 renal, over 14.5 µM; in the test with HS 578T breast, over 25 µM. The GI50 in the test on RPMI-8226 leukemia is 18.3 µM; in the test with MOLT-4 leukemia it was 20.4 µM; in the test on PC-3 prostate it was over 20.1 µM; with MDA-MB-435 it was over 25 µM. For the same compound, the TGI in the test with UACC-257 melanoma, with HCT-15 colon, in the test with A498 renal, in the test with TK-10 renal, with RXF 393 renal and in the test with HS 578T breast was over 25 µM in each case. Besides, the TGI in the test on RPMI-8226 leukemia, with MOLT-4 leukemia, with PC-3 prostate and with MDA-MB-435 was over 25 µM throughout.
